From paper PMC10116596 (Biochemistry, 2023)

Target: LcrH1–168 (Yersinia pestis, UniProt P21207)
Format: binding, Y. pestis
Conditions: pH 7.8

Chain of LcrH1–168 (P21207 whole entry, looked up): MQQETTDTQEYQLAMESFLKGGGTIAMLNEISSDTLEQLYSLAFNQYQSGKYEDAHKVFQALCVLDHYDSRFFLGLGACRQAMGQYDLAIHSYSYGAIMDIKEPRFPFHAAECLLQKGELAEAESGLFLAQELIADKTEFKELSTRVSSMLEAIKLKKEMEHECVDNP

Substance	ΔH	–TΔS [kcal/mol]
Ac-QGVQLPAPLA-NH2 [YopB48–57]	–44 ± 15 kJ/mol	5.5 ± 3.59
Ac-QVPELIKPSQ-NH2 [YopD56–65]	–51 ± 2 kJ/mol	6.69 ± 0.48
